In patent US20230226074A1, “METHODS OF USE FOR PYRIMIDINES AS FERROPORTIN INHIBITORS” (Global Blood Therapeutics, Inc., priority 2020, published 2023):

Biological target: T1, human ferroportin (Homo sapiens, UniProt Q9NP59)
T1 construct: luciferase reporter (probably NanoLuc, inferred from the Nano-Glo Luciferase Assay System read-out); expressed in transfected cells; host or cells: CHO cells, stably transfected, expression induced with doxycycline
T1 sequence (Q9NP59 1-571): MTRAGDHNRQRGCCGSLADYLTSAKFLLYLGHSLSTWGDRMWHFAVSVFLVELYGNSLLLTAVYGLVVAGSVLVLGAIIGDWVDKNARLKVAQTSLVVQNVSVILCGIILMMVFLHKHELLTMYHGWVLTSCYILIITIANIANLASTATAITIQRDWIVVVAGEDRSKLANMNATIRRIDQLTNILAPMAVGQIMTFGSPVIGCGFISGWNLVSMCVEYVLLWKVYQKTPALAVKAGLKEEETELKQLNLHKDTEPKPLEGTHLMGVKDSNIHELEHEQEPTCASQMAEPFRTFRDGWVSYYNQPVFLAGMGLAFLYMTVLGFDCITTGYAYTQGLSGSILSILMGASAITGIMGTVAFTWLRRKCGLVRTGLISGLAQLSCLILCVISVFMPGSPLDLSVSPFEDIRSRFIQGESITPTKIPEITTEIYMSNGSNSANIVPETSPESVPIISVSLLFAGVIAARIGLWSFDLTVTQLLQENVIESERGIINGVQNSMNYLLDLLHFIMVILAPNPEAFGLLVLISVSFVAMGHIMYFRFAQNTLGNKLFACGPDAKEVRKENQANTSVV
Test: In-vitro ferroportin internalization assay (luciferase reporter)
Assay type: cell-based
Conditions: average pEC50; stably-transfected CHO cell line expressing human ferroportin tagged to a luciferase reporter; 6 h incubation with test compound
Method: The protocol for this assay is generally as described in WO2018/128828, incorporated herein by reference in its entirety. Functional internalization of ferroportin protein was measured using a stably-transfected CHO cell line expressing the human ferroportin tagged to a luciferase reporter. Cells were plated for 24 h in the presence of ferric ammonium citrate (FAC). Ferroportin protein expression was induced with doxycycline for 24 h. The next day, the compounds were added. Test compounds were dissolved in DMSO. Cells were incubated with the test compounds for 6 h, and subsequently luciferase activity was measured using the Nano-Glo Luciferase Assay System and Glomax (Promega, Madison, Wis.). The average pEC50 was determined for the test compounds.

SMILES	pEC50
COCCNc1nc(-c2ccccn2)nc2sc(C)c(C)c12 [Compound 241, N-(2-methoxyethyl)-5,6-dimethyl-2-(pyridin-2-yl)thieno[2,3-d]pyrimidin-4-amine]	6.3
Cc1sc2nc(-c3ccccn3)nc(NCCNc3ccccn3)c2c1C [Compound 243, N2-[5,6-dimethyl-2-(pyridin-2-yl)thieno[2,3-d]pyrimidin-4-yl]-N1-(pyridin-2-yl)ethane-1,2-diamine]	6.4
COc1ccc(NC(=O)[C@@H](C(C)C)N(C)c2nc(-c3ccccn3)nc3c2CCC3)cn1 [Compound 315, (2R)-N-(6-methoxypyridin-3-yl)-3-methyl-2-{methyl[2-(pyridin-2-yl)-5H,6H,7H-cyclopenta[d]pyrimidin-4-yl]amino}butanamide]	7.3
COc1ccc(NC(=O)CN(C)c2nc(-c3cc4cn[nH]c4cn3)nc3c2CCC3)nc1 [Compound 334, N-(5-methoxypyridin-2-yl)-2-[methyl(2-{1H-pyrazolo[3,4-c]pyridin-5-yl}-5H,6H,7H-cyclopenta[d]pyrimidin-4-yl)amino]acetamide]	7.5
CN(C)CCOc1ccnc(-c2nc3c(c(N(C)CC(=O)NC(C)(C)C)n2)CCC3)c1 [Compound 417, N-tert-butyl-2-[(2-{4-[2-(dimethylamino)ethoxy]pyridin-2-yl}-5H,6H,7H-cyclopenta[d]pyrimidin-4-yl)(methyl)amino]acetamide]	7.7
CN(CC(=O)N1CC2CC(C2)C1)c1nc(-c2cc(OCCO)ccn2)nc2c1CCC2 [Compound 433, 1-{3-azabicyclo[3.1.1]heptan-3-yl}-2-({2-[4-(2-hydroxyethoxy)pyridin-2-yl]-5H,6H,7H-cyclopenta[d]pyrimidin-4-yl}(methyl)amino)ethan-1-one]	8.1
CN(CC(=O)NC(C)(C)C)c1nc(-c2cc(OC[C@H](O)CO)ccn2)nc2c1CCC2 [Compound 484, N-tert-butyl-2-[(2-{4-[(2R)-2,3-dihydroxypropoxy]pyridin-2-yl}-5H,6H,7H-cyclopenta[d]pyrimidin-4-yl)(methyl)amino]acetamidede]	7.7

Results, then the compound that gave them:

pEC50	SMILES
6.3	Cc1cc(NC(=O)CN(C)c2nc(-c3ccccn3)nc3scc(-c4ccccc4)c23)no1 [Compound 238, N-(5-methyl-1,2-oxazol-3-yl)-2-{methyl[5-phenyl-2-(pyridin-2-yl)thieno[2,3-d]pyrimidin-4-yl]amino}acetamide]
5.8	CNC(=O)CN(C)c1nc(-c2ccccn2)nc2sc(-c3ccccc3)cc12 [Compound 239, N-methyl-2-{methyl[6-phenyl-2-(pyridin-2-yl)thieno[2,3-d]pyrimidin-4-yl]amino}acetamide]
<5.0	CCNC(=O)CN(C)c1nc(-c2ccccn2)nc2sc(-c3ccccc3)cc12 [Compound 240, N-ethyl-2-{methyl[6-phenyl-2-(pyridin-2-yl)thieno[2,3-d]pyrimidin-4-yl]amino}acetamide]
7	Cc1sc2nc(-c3ccccn3)nc(N(C)CC(=O)Nc3cccc(F)c3)c2c1C [Compound 242, 2-{[5,6-dimethyl-2-(pyridin-2-yl)thieno[2,3-d]pyrimidin-4-yl](methyl)amino}-N-(3-fluorophenyl)acetamide]
5.4	CCN(CCO)c1nc(-c2ccccn2)nc2sc(C)c(-c3ccccc3)c12 [Compound 244, 2-{ethyl[6-methyl-5-phenyl-2-(pyridin-2-yl)thieno[2,3-d]pyrimidin-4-yl]amino}ethan-1-ol]
5.5	CC1CC(=O)NCCN1c1nc(-c2ccccn2)nc2scc(-c3ccccc3)c12 (centres unmarked) [Compound 245, 7-methyl-1-[5-phenyl-2-(pyridin-2-yl)thieno[2,3-d]pyrimidin-4-yl]-1,4-diazepan-5-one]
6.2	CN(CCCc1n[nH]c(N)c1C#N)c1nc(-c2ccccn2)nc2scc(-c3ccccc3)c12 [Compound 246, 5-amino-3-(3-{methyl[5-phenyl-2-(pyridin-2-yl)thieno[2,3-d]pyrimidin-4-yl]amino}propyl)-1H-pyrazole-4-carbonitrile]
